Where “and” joins values, the source holds several entries; their conditions need not be identical. Equal values may be shown once.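 Results reflect a 48-hour exposure of cells in 96-well plates to compound at five concentrations. GI50 is the concentration that inhibits growth by half. At the TGI there is no net growth.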
Columns and labels:
Experiment in all cases: NCI anticancer screen, dose series, 48 h
NCI-H460 lung = test system: NCI-H460 lung
M14 melanoma = test system: M14 melanoma
COLO 205 colon = test system: COLO 205 colon
U251 CNS = test system: U251 CNS
KM12 colon = test system: KM12 colon
UO-31 renal = test system: UO-31 renal
A549 NSCLC = test system: A549 NSCLC
OVCAR-3 ovarian = test system: OVCAR-3 ovarian
SF-539 CNS = test system: SF-539 CNS
UACC-257 melanoma = test system: UACC-257 melanoma

Row | Structure (SMILES) | GI50 (NCI-H460 lung) | TGI (NCI-H460 lung) | GI50 (M14 melanoma) | TGI (M14 melanoma) | GI50 (COLO 205 colon) | TGI (COLO 205 colon) | GI50 (U251 CNS) | TGI (U251 CNS) | GI50 (KM12 colon) | TGI (KM12 colon) | GI50 (UO-31 renal) | TGI (UO-31 renal) | GI50 (A549 NSCLC) | TGI (A549 NSCLC) | GI50 (OVCAR-3 ovarian) | TGI (OVCAR-3 ovarian) | GI50 (SF-539 CNS) | TGI (SF-539 CNS) | GI50 (UACC-257 melanoma) | TGI (UACC-257 melanoma)
1 | NNc1ncnc2nc[nH]c12 | 5.58 µM | 51.6 µM | 2.76 µM | > 100 µM | 2.56 µM | 18.7 µM | 10.9 µM | > 100 µM | 3.56 µM | 44.5 µM | 2.48 µM | > 100 µM | 4.94 µM | > 38.6 µM | 3.56 µM | 26.9 µM | 21.2 µM | > 100 µM | 57.6 µM | > 100 µM
2 | O=c1[nH]c(O)c(C=Nc2ccc(-c3nc4ccccc4o3)cc2)c(=O)[nH]1 | > 100 µM | > 100 µM | 50.8 µM | > 100 µM | 23.2 µM | > 100 µM | 23.8 µM | 75.9 µM | 31.3 µM | > 100 µM | 82.4 µM | > 100 µM | 74.9 µM | > 100 µM | 15.6 µM | 57.4 µM | 27.4 µM | 62.7 µM | 58.4 µM | > 100 µM
3 | C=CC12CCN(CC1)C(C(O)c1ccnc3ccc(OC)cc13)C2 (stereo unspecified) | > 100 µM | > 100 µM | 87.1 µM | > 100 µM | 94.8 µM | > 100 µM | > 100 µM | > 100 µM | > 100 µM | > 100 µM | 39.7 µM | > 100 µM | > 100 µM | > 100 µM | > 100 µM | > 100 µM | > 100 µM | > 100 µM | 74.2 µM | > 100 µM
4 | COc1ccc(Cl)cc1NC(=O)c1ccc(NC2=C(Cl)C(=O)N(Cc3ccccc3)C2=O)cc1 | 9.41 µM | > 100 µM | > 100 µM | > 100 µM | > 100 µM | > 100 µM | 28.3 µM | > 100 µM | 64.4 µM | > 100 µM | > 100 µM | > 100 µM | > 100 µM | > 100 µM | 36.3 µM | > 100 µM | > 100 µM | > 100 µM | 94.1 µM | > 100 µM
5 | CSC[C@H](NC(=O)COc1cccc2cnccc12)C(=O)NC(Cc1ccccc1)C(O)C(=O)N1CSC[C@H]1C(=O)NC(C)(C)C (stereo partly specified) |  | > 100 µM |  | > 100 µM |  | > 100 µM |  | > 100 µM |  | > 100 µM |  | > 100 µM |  | > 100 µM |  | > 100 µM |  | 31.4 µM |  | > 100 µM
6 | COc1ccc2c(=O)oc3c(OC)cc(CCN(C)C)c4c(=O)oc1c2c34 | 13.8 µM and 2.4 µM | 29.9 µM and 9.03 µM |  | 31.2 µM and 18.2 µM |  | 17.4 µM and 22.1 µM |  | 27.6 µM and 19 µM | 18 µM and 6.41 µM | 36 µM and 13.4 µM | 17.3 µM and 8.48 µM | 31.1 µM and 15.6 µM | 21.3 µM and 8.46 µM | 37 µM and 20.2 µM |  | 30 µM and 19.8 µM | 22.8 µM and 6.89 µM | 37.5 µM and 14 µM | 19.7 µM and 3.31 µM | 38.7 µM and 10.3 µM
7 | NC(N)=Nc1nc2ccccc2o1 | > 100 µM | > 100 µM | > 100 µM | > 100 µM | > 100 µM | > 100 µM | > 100 µM | > 100 µM | > 100 µM | > 100 µM | 79.4 µM | > 100 µM | > 100 µM | > 100 µM | > 100 µM | > 100 µM | > 100 µM | > 100 µM | 21.2 µM | > 100 µM
8 | CCOC(=O)Nc1c(C)nc2ccccn12 | > 100 µM | > 100 µM | > 100 µM | > 100 µM | > 100 µM | > 100 µM | > 100 µM | > 100 µM | > 100 µM | > 100 µM | > 100 µM | > 100 µM | > 100 µM | > 100 µM | > 100 µM | > 100 µM | > 100 µM | > 100 µM | > 100 µM | > 100 µM
9 | O=C1C/C(Br)=C\c2ccccc2-c2ccccc21 |  | 10.4 µM |  | 5.27 µM |  | 12.4 µM |  | 6.83 µM |  | 11.5 µM |  | 6.87 µM |  | 21.8 µM |  | 7.52 µM |  | 4.85 µM |  | 14.5 µM
10 | CC1=C(C(=O)Nc2ccccc2)C(c2ccc(Cl)c(Cl)c2)C(C(=O)Nc2ccccc2)=C(C)N1 |  | 31.2 µM |  | 25.1 µM |  | 29.4 µM |  | 27.6 µM |  | 25.7 µM |  | 26 µM |  | 25.3 µM |  | 25.3 µM |  | 32.3 µM |  | 26.5 µM
11 | CCSc1nc(N=Cc2ccccc2O)c2cn[nH]c2n1 | 30.7 µM | > 100 µM | 17.4 µM | 33 µM | 30.7 µM | > 100 µM | 44.4 µM | > 100 µM | 13.2 µM | 37 µM | 61.6 µM | > 100 µM | 46.2 µM | > 100 µM | 13.8 µM | 61.2 µM | 34.2 µM | > 100 µM | 56.7 µM | > 100 µM
12 | CCOC(=O)c1c(C)c2c(n1Cc1ccccc1)CSCC2=O | 20.4 µM | 55.1 µM | 20 µM | 56.3 µM | 20.3 µM | 48.8 µM | 22.4 µM | > 100 µM | 15 µM | 37.9 µM | 13.5 µM | > 100 µM | 30.6 µM | > 100 µM | 17.5 µM | 46.2 µM | 17.5 µM | 50.9 µM | 26.9 µM | 94.1 µM
13 | O=Cc1cc2c(cc1-c1cc3c(cc1C=O)OCO3)OCO2 |  | > 100 µM |  | > 100 µM |  | > 100 µM |  | > 100 µM |  | > 100 µM |  | > 100 µM |  | > 100 µM |  | > 100 µM |  | > 100 µM |  | > 100 µM
14 | NCCCn1c2c(c3ccc([N+](=O)[O-])cc3c1=O)C(=O)c1cc(I)ccc1-2 | < 0.01 µM | 1.31 µM | 0.0315 µM | 1.32 µM | 1.02 µM | 2.44 µM | < 0.01 µM | 1.39 µM | 0.127 µM | 1.31 µM | 0.0273 µM | 1.5 µM | 0.0133 µM | 1.74 µM | 1.19 µM | 2.9 µM | 0.0435 µM | 1.21 µM | 1.1 µM | 2.55 µM
15 | COC(=O)C1=CN(CC2=CC(=O)C(C)=CC2=O)C=C(C(=O)OC)C1c1ccccc1OC | 33.7 µM | > 87.7 µM | 17.3 µM | 32.7 µM | 18.9 µM | 38.2 µM | 20 µM | 46.7 µM | 23.6 µM | > 72.3 µM | 16.4 µM | 31.2 µM | 29.3 µM | > 59.4 µM | 13.2 µM | 26.8 µM | 21.2 µM | 60.3 µM | 22.3 µM | 44.3 µM
16 | O/N=C1\CCCCC1C(NO)c1ccccc1 (stereo unspecified) |  | > 100 µM |  | > 100 µM |  | > 100 µM |  | > 100 µM |  | > 100 µM |  | > 100 µM |  | > 100 µM |  | > 100 µM |  | > 100 µM |  | > 100 µM
17 | O=C(Nc1nc(-c2c[nH]c3ccccc23)cs1)c1n[nH]c(=O)c2ccccc12 | 0.451 µM | > 36.8 µM | 3.48 µM | 20.1 µM | 2.47 µM | > 60.1 µM | 0.663 µM | 24 µM | 1.76 µM | > 100 µM | 8.46 µM | > 67.7 µM | 1.57 µM | 83.6 µM | 13.6 µM | > 83.7 µM | 1.68 µM | > 57.6 µM | 38.4 µM | > 100 µM
18 | COc1cc(C[P+](c2ccccc2)(c2ccccc2)c2ccccc2)cc(OC)c1OC |  | > 100 µM |  | > 100 µM |  | > 100 µM |  | > 100 µM |  | > 100 µM |  | > 100 µM |  | > 100 µM |  | > 100 µM |  | > 100 µM |  | > 100 µM
19 | COC(=N)c1csc(C2OC(CO)C(O)C2O)n1 (stereo unspecified) |  | > 100 µM |  | > 100 µM |  | > 100 µM |  | > 100 µM |  | > 100 µM |  | > 100 µM |  | > 100 µM |  | > 100 µM |  | > 100 µM |  | > 100 µM
20 | Nc1c(S(=O)(=O)c2ccc(Cl)cc2)c2nc3ccccc3nc2n2ccnc12 |  | > 100 µM |  | > 100 µM |  | > 100 µM |  | > 100 µM |  | > 100 µM |  | > 100 µM |  | > 100 µM |  | > 100 µM |  | 36.2 µM |  | > 100 µM

From PubChem BioAssay (NCI)
